Test results from PubChem BioAssay AID1259407 (Chemical Carcinogenesis Research Information System (CCRIS), 2018).
Active and inactive are the calls of the source. How the calls were made is not given here.

Tested on: CCRIS mutagenicity, Ames/micronucleus/aberration tests
Experiment: CCRIS mutagenicity studies
[1] = Test System: AMES SALMONELLA TYPHIMURIUM, Strain/Indicator: TA98, Metabolic Activation: NONE, Method: PREINCUBATION
[2] = Test System: AMES SALMONELLA TYPHIMURIUM, Strain/Indicator: TA100, Metabolic Activation: NONE, Method: PREINCUBATION
[3] = Test System: AMES SALMONELLA TYPHIMURIUM, Strain/Indicator: TA100, Metabolic Activation: NONE, Method: STANDARD PLATE
[4] = Test System: AMES SALMONELLA TYPHIMURIUM, Strain/Indicator: TA100, Metabolic Activation: RAT, LIVER, S-9, AROCLOR 1254, Method: STANDARD PLATE
[5] = Test System: AMES SALMONELLA TYPHIMURIUM, Strain/Indicator: TA100, Metabolic Activation: RAT, LIVER, S-9, PCB, Method: PREINCUBATION

Cc1cc2c3c(cccc3c1)-c1cc3ccccc3cc1-2
mutagenic call (Test System: AMES SALMONELLA TYPHIMURIUM, Strain/Indicator: TA100, Metabolic Activation: RAT, LIVER, S-9, AROCLOR 1254): active; positive

O=C(/C=C/c1ccccc1O)c1ccc(O)cc1O
mutagenic call (Test System: Ames Salmonella typhimurium, Strain/Indicator: TA102, Metabolic Activation: None, Method: Preincubation): inactive; negative
mutagenic call (Test System: Ames Salmonella typhimurium, Strain/Indicator: TA102, Metabolic Activation: Rat, Liver, S-9, Aroclor 1254 in 0.154 M KCl, Method: Preincubation): inactive; negative

c1ccc([As+](c2ccccc2)(c2ccccc2)c2ccccc2)cc1
mutagenic call (Test System: Mouse lymphoma, Strain/Indicator: L5178Y (TK+/TK-), Metabolic Activation: None, Method: Microwell): inactive; negative

COc1cc(C)cc2c(O)c(-c3c(C)cc4c(O)ccc(O)c4c3OC)cc(O)c12
mutagenic call [1]: inactive; negative
mutagenic call (Test System: AMES SALMONELLA TYPHIMURIUM, Strain/Indicator: TA98, Metabolic Activation: RAT, LIVER, S-9, AROCLOR 1254, Method: PREINCUBATION): inactive; negative
mutagenic call [2]: inactive; negative
mutagenic call (Test System: AMES SALMONELLA TYPHIMURIUM, Strain/Indicator: TA100, Metabolic Activation: RAT, LIVER, S-9, AROCLOR 1254, Method: PREINCUBATION): inactive; negative

C=C(Cl)CSC(=S)N(CC)CC
mutagenic call [3]: inactive; negative
mutagenic call (Test System: AMES SALMONELLA TYPHIMURIUM, Strain/Indicator: TA100, Metabolic Activation: RAT, LIVER, CYTOSOL, AROCLOR 1254, Method: STANDARD PLATE): inactive; negative
mutagenic call (Test System: AMES SALMONELLA TYPHIMURIUM, Strain/Indicator: TA100, Metabolic Activation: RAT, LIVER, MICROSOMES, AROCLOR 1254, Method: STANDARD PLATE): inactive; negative
mutagenic call (Test System: AMES SALMONELLA TYPHIMURIUM, Strain/Indicator: TA100, Metabolic Activation: RAT, LIVER, MICROSOMES, CYTOSOL, AROCLOR 1254, Method: STANDARD PLATE): active; positive
mutagenic call [4]: active; positive

CC(c1ccccc1)N(C)C (stereo not given)
mutagenic call [1]: inactive; negative
mutagenic call (Test System: AMES SALMONELLA TYPHIMURIUM, Strain/Indicator: TA98, Metabolic Activation: RAT, LIVER, S-9, PCB, Method: PREINCUBATION): inactive; negative
mutagenic call [2]: inactive; negative
mutagenic call [5]: inactive; negative

CC(C)[C@@](O)(C(=O)OC[C@@H]1CCN2CCC[C@H]12)[C@@H](C)O
mutagenic call (Test System: AMES SALMONELLA TYPHIMURIUM, Strain/Indicator: TA100, Metabolic Activation: HAMSTER, LIVER, S-9, PCB, Method: PREINCUBATION): inactive; negative
mutagenic call [5]: inactive; negative

Nc1cc([N+](=O)[O-])c(N)cc1Cl
mutagenic call (Test System: AMES SALMONELLA TYPHIMURIUM, Strain/Indicator: TA98, Metabolic Activation: NONE, Method: STANDARD PLATE): active; positive
mutagenic call (Test System: AMES SALMONELLA TYPHIMURIUM, Strain/Indicator: TA98, Metabolic Activation: RAT, LIVER, S-9, AROCLOR 1254, Method: STANDARD PLATE): active; positive
mutagenic call [3]: inactive; negative
mutagenic call [4]: inactive; negative
mutagenic call (Test System: AMES SALMONELLA TYPHIMURIUM, Strain/Indicator: TA1535, Metabolic Activation: NONE, Method: STANDARD PLATE): inactive; negative
mutagenic call (Test System: AMES SALMONELLA TYPHIMURIUM, Strain/Indicator: TA1535, Metabolic Activation: RAT, LIVER, S-9, AROCLOR 1254, Method: STANDARD PLATE): inactive; negative
mutagenic call (Test System: AMES SALMONELLA TYPHIMURIUM, Strain/Indicator: TA1537, Metabolic Activation: NONE, Method: STANDARD PLATE): inactive; negative
mutagenic call (Test System: AMES SALMONELLA TYPHIMURIUM, Strain/Indicator: TA1537, Metabolic Activation: RAT, LIVER, S-9, AROCLOR 1254, Method: STANDARD PLATE): inactive; negative
mutagenic call (Test System: AMES SALMONELLA TYPHIMURIUM, Strain/Indicator: TA1538, Metabolic Activation: NONE, Method: STANDARD PLATE): active; positive
mutagenic call (Test System: AMES SALMONELLA TYPHIMURIUM, Strain/Indicator: TA1538, Metabolic Activation: RAT, LIVER, S-9, AROCLOR 1254, Method: STANDARD PLATE): active; positive

[N-]=[N+]=O
mutagenic call (Test System: CHINESE HAMSTER V-79, Strain/Indicator: V-79/8-AZAGUANINE, Metabolic Activation: NONE, Method: STANDARD PLATE): active; positive

COc1cc(OC)nc(NC(=O)NS(=O)(=O)c2ncccc2C(=O)N(C)C)n1
mutagenic call (Test System: Chinese hamster lung cells, Strain/Indicator: V79 (HPRT)/6-Thioguanine, Metabolic Activation: None, Method: Standard plate?): inactive; negative
mutagenic call (Test System: Chinese hamster lung cells, Strain/Indicator: V79 (HPRT)/6-Thioguanine, Metabolic Activation: S-9, Method: Standard plate?): inactive; negative
mutagenic call (Test System: TA97, Metabolic Activation: None, Method: Preincubation?): inactive; negative
mutagenic call (Test System: TA97, Metabolic Activation: S-9, Method: Preincubation?): inactive; negative
mutagenic call (Test System: TA98, Metabolic Activation: None, Method: Preincubation?): inactive; negative
mutagenic call (Test System: TA98, Metabolic Activation: S-9, Method: Preincubation?): inactive; negative
mutagenic call (Test System: TA100, Metabolic Activation: None, Method: Preincubation?): inactive; negative
mutagenic call (Test System: TA100, Metabolic Activation: S-9, Method: Preincubation?): inactive; negative
mutagenic call (Test System: TA102, Metabolic Activation: None, Method: Preincubation?): inactive; negative
mutagenic call (Test System: TA102, Metabolic Activation: S-9, Method: Preincubation?): inactive; negative
